Reference: US8592172B2, “Bioluminescent assays using cyanobenzothiazole compounds” (Promega Corporation, priority 2010, dated 2013)
Values belong to the molecule of their own block, whether it stands above or below them.

Tests used:
[1] = target: T1, UGT 1A4 (Homo sapiens, UniProt P22310); test: Recombinant UGT panel, substrate utilization; assay type: biochemical; settings: 2 hour incubation at 37° C., recombinant Supersomes
T1 construct: purchased BD Gentest; host or cells: insect cells (microsomes)
T1 sequence (P22310 29-534): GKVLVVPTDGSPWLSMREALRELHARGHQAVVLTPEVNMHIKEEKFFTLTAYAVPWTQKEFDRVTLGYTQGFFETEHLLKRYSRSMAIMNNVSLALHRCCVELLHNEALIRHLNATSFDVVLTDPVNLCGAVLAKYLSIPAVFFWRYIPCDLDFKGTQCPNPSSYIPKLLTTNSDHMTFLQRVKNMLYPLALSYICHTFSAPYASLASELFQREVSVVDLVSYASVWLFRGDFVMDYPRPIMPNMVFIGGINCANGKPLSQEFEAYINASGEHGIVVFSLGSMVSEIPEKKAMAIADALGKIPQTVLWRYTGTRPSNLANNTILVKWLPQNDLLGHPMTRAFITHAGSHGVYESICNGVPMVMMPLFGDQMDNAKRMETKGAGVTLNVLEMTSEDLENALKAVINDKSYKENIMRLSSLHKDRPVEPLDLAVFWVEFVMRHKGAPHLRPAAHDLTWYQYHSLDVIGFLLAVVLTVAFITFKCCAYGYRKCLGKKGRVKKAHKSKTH
Procedure: (§1) During this incubation, the cysteine reacts with the cyanobenzathiozole substrate to yield a D-luciferin derivative. […] Therefore, activity of the UGT enzyme can be measured by analyzing the difference (lower or no output) in relative light units (RLU) of a sample in which glucuronidation occurs compared to a sample that was run under the same conditions with no added UDPGA cofactor.
(§2) In this example, a series of 12 recombinant UGTs expressed in insect microsomes (Supersomes™, BD Gentest™), as well as the control microsomes not expressing the UGT enzyme, were incubated with compound 3138, compound 3478, or compound 3165 as substrates, with or without the UDPGA co-factor.
(§3) After addition of a luciferin detection reagent (LDR) containing D-cysteine, both the substrate and the product were converted to D-luciferins (compound 3478 is already a luciferin derivative before addition of the LDR).
(§4) Reactions were assembled in a white, 96-well plate. Each well contained 20 μL of reaction mixture comprised of 100 mM TES, pH 7.5, 16 mM MgCl2, 50 μg/mL alamethicin (Sigma), 60 μM compound 3138 or compound 3478, and 0.4 mg/mL of control or recombinant UGT membranes. The reactions were initiated by addition of 20 μL of water or 8 mM triammonium UDPGA (Sigma) to each well. The plate was mixed, sealed, and incubated in a 37° C. water bath for 2 hours. After the incubation, 40 μL P450-Glo LDR (Promega) with 20 mM D-cysteine-HCl.H2O (Sigma) was added to each well, the plate was mixed and allowed to incubate at room temperature for 20 minutes. After the incubation was completed, the plate was read on a Veritas™ luminometer (Turner BioSystems, Inc.; Sunnyvale, Calif.).
(§5) For each isozyme, the bioluminescence from the replicates containing UDPGA were subtracted from the average bioluminescence of the replicates without UDPGA. The average Δ RLU value obtained and the standard deviation of the replicates were then divided by the average bioluminescence for samples without UDPGA to obtain the % utilization for each isozyme. The % utilization obtained from the control microsomes was then subtracted from each isozyme to give the background corrected utilization data for those isozymes.

[2] = target: T2, UGT 1A9 (Homo sapiens, UniProt O60656); test: Recombinant UGT panel, substrate utilization; assay type: biochemical; settings: 2 hour incubation at 37° C., recombinant Supersomes, background corrected
T2 construct: purchased BD Gentest; host or cells: insect cells (microsomes)
T2 sequence (O60656 26-530): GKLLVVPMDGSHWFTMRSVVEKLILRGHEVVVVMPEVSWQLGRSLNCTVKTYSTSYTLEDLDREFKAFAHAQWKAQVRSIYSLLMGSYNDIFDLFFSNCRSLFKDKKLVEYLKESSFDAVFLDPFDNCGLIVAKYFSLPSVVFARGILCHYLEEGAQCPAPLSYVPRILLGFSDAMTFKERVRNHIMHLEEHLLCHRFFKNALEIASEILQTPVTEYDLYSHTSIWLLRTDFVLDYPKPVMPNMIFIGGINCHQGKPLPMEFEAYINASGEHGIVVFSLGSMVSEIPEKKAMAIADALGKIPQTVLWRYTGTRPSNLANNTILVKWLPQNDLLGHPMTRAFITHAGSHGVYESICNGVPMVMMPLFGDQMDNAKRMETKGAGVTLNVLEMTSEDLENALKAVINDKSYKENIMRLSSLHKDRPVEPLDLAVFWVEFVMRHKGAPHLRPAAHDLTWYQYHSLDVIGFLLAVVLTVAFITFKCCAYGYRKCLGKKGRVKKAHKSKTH
Procedure: as §1, §2, §3, §4, §5

[3] = target: T3, UGT 2B4 (Homo sapiens, UniProt P06133); test: Recombinant UGT panel, substrate utilization; assay type: biochemical; settings: 2 hour incubation at 37° C., recombinant Supersomes
T3 construct: purchased BD Gentest; host or cells: insect cells (microsomes)
Procedure: as §1, §2, §3, §4, §5

[4] = target: T4, UGT 1A6 (Homo sapiens, UniProt P19224); test: Recombinant UGT panel, substrate utilization; assay type: biochemical; settings: 2 hour incubation at 37° C., recombinant Supersomes
T4 construct: purchased BD Gentest; host or cells: insect cells (microsomes)
Procedure: as §1, §2, §3, §4, §5

[5] = target: T5, UGT 1A10 (Homo sapiens, UniProt Q9HAW8); test: Recombinant UGT panel, substrate utilization; assay type: biochemical; settings: 2 hour incubation at 37° C., recombinant Supersomes, background corrected
T5 construct: purchased BD Gentest; host or cells: insect cells (microsomes)
Procedure: as §1, §2, §3, §4, §5

[6] = target: T6, UGT 1A8 (Homo sapiens, UniProt Q9HAW9); test: Recombinant UGT panel, substrate utilization; assay type: biochemical; settings: 2 hour incubation at 37° C., recombinant Supersomes, background corrected
T6 construct: purchased BD Gentest; host or cells: insect cells (microsomes)
Procedure: as §1, §2, §3, §4, §5

[7] = target: T7, UGT 1A1 (Homo sapiens, UniProt P22309); test: Recombinant UGT panel, substrate utilization; assay type: biochemical; settings: 2 hour incubation at 37° C., recombinant Supersomes, background corrected
T7 construct: purchased BD Gentest; host or cells: insect cells (microsomes)
T7 sequence (P22309 26-533): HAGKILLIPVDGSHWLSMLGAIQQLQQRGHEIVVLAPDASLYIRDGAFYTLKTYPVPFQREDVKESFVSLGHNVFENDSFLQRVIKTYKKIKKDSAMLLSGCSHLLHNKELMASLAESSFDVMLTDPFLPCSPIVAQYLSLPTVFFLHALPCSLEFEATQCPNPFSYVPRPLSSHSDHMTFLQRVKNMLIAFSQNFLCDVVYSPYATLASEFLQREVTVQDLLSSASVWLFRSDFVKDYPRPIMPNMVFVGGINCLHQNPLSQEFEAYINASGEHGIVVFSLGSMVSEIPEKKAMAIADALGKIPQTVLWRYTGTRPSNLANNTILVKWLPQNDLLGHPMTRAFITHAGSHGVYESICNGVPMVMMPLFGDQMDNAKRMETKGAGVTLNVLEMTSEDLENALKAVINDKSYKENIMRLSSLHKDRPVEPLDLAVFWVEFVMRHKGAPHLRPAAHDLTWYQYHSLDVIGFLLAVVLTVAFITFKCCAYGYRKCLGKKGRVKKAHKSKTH
Procedure: as §1, §2, §3, §4, §5

[8] = target: UGT 2B7 (Homo sapiens, UniProt P16662); test: Recombinant UGT panel, substrate utilization; assay type: biochemical; set-up: purchased BD Gentest; host or cells: insect cells (microsomes); settings: 2 hour incubation at 37° C., recombinant Supersomes, background corrected
Procedure: as §1, §2, §3
Reactions were assembled in a white, 96-well plate. Each well contained 20 μL of reaction mixture comprised of 100 mM TES, pH 7.5, 16 mM MgCl2, 50 μg/mL alamethicin (Sigma), 60 μM compound 3138 or compound 3478, and 0.4 mg/mL of control or recombinant UGT membranes. The reactions were initiated by addition of 20 μL of water or 8 mM triammonium UDPGA (Sigma) to each well. […] After the incubation was completed, the plate was read on a Veritas™ luminometer (Turner BioSystems, Inc.; Sunnyvale, Calif.). […]

[9] = test system: UGT isozymes; settings: UGT isozymes currently reported in the literature; cited from earlier work
[10] = target: T8, glutathione S-transferase isoenzyme A1-1 (GST A1-1) (Homo sapiens, UniProt P08263); test: Utilization of benzothiazole substrate by GST A1-1; assay type: biochemical; settings: 55 minutes at room temperature
T8 sequence (P08263 1-222): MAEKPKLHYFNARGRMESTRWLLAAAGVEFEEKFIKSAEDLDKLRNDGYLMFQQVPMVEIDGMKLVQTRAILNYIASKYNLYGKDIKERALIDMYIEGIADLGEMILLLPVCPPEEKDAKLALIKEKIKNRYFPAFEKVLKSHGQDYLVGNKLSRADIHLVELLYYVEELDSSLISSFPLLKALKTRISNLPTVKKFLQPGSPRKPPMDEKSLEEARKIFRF
Procedure: (§6) Compound 934-37 was dissolved in DMSO to produce a solution approximately 1 mg/mL. This solution was diluted 1:100 (v/v) into 50 mM HEPES buffer pH 7.5 to produce a substrate solution (approximately 10 μg/ml). Twenty μL of this solution was placed in 10 wells of a 96 well, white luminometer plate (Promega part Z3291), 20 μL of a 1:3.1 dilution of the substrate (approximately 3.2 μg/ml) was placed into another 10 wells in the luminometer plate.
(§7) D-Cysteine, 4 mg (Sigma Chemical Corp.; C8005-1g, 017K1034) was dissolved into 1 mL of 50 mM HEPES buffer pH 7.5, then 4 μL added to 4 of the wells containing the substrate solution and 4 of the wells with diluted substrate solution to convert compound 934-37 to the corresponding luciferin derivative. The structures of these compounds are shown below.
A sample of glutathione S-transferase isoenzyme A1-1 (GST A1-1) (1.2 mg/mL) and 100 μL of 100 mM glutathione in water was diluted into 5 mL of 50 mM HEPES pH 7.5, then 25 μL added to the plate as follows: 2 wells with unconverted, concentrated compound 934-37; 2 wells with concentrated and converted compound 934-37; 2 wells with unconverted, diluted compound 934-37; and 2 of the wells with converted, diluted compound 934-37.
(§8) Glutathione (100 μL of 100 mM glutathione) had been diluted to 5 mL with 50 mM HEPES buffer pH 7.5, then 25 μL added to the remaining wells of converted and unconverted compound 934-37 in concentrated and diluted solution.
(§9) After 55 minutes at room temperature, 4 μL of the D-cysteine solution above was added to all wells that had not received cysteine before, then 50 μL of P450-Glo LDR was added. The plate was then placed into a GloMax luminometer (Promega Corp.), and the bioluminescence measured after 15 minutes of incubation. The values obtained were averaged, and the average value of the bioluminescence produced from the wells with no enzyme were then subtracted from the average of the bioluminescence produced in the wells with enzyme.

[11] = target: T9, GST M1-1 (Homo sapiens, UniProt P09488); test: Utilization of benzothiazole substrate by GST M1-1; assay type: biochemical; settings: 55 minutes at room temperature
T9 sequence (P09488 2-218 limits assumed): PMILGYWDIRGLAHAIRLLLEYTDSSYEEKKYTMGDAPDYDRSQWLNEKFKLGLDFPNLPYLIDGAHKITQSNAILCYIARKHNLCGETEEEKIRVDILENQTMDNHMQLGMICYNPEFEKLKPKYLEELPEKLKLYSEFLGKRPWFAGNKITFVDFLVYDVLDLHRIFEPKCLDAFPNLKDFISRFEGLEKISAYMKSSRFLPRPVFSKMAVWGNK
Procedure: as §6, §7
A sample of GST M1-1 (1.2 mg/mL) and 100 μL of 100 mM glutathione was diluted into 5 mL of 50 mM HEPES pH 7.5, then 25 μL added to: two of the wells with unconverted, concentrated compound 934-37; 2 wells with concentrated and converted compound 934-37; and two of the wells with unconverted, diluted compound 934-37 and 2 of the wells with converted, diluted compound 934-37.
as §8, §9

[12] = concentrated substrate (approximately 10 μg/ml)
[13] = diluted substrate (approximately 3.2 μg/ml)

T3 sequence (P06133 24-528): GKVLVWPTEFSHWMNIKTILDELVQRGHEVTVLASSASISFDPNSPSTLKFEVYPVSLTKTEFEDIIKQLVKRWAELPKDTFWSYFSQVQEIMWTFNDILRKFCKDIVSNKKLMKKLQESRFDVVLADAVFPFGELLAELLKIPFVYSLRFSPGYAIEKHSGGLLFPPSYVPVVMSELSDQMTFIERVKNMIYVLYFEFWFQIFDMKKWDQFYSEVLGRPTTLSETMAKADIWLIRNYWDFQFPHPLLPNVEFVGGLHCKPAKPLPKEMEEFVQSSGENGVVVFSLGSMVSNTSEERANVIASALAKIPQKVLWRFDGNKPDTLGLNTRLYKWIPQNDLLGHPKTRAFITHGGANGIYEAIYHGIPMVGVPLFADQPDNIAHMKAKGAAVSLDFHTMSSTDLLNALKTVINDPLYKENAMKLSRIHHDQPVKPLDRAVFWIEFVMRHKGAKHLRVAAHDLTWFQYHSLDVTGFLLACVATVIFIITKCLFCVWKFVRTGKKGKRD
Chain of UGT 2B7 (P16662 24-529): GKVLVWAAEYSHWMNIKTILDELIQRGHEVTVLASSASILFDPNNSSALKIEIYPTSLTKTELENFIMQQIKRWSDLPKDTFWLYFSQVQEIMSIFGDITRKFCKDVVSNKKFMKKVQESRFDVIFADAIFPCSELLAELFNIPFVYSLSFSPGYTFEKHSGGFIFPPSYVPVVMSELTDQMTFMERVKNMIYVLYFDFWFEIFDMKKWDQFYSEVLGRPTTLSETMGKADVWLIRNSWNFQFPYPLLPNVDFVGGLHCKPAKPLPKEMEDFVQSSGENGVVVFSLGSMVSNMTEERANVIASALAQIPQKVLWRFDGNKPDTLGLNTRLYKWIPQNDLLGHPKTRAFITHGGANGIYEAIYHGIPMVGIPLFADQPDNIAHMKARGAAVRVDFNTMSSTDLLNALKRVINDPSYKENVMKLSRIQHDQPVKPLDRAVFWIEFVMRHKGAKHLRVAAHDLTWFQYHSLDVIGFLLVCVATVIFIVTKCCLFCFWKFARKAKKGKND
T6 sequence (Q9HAW9 26-530): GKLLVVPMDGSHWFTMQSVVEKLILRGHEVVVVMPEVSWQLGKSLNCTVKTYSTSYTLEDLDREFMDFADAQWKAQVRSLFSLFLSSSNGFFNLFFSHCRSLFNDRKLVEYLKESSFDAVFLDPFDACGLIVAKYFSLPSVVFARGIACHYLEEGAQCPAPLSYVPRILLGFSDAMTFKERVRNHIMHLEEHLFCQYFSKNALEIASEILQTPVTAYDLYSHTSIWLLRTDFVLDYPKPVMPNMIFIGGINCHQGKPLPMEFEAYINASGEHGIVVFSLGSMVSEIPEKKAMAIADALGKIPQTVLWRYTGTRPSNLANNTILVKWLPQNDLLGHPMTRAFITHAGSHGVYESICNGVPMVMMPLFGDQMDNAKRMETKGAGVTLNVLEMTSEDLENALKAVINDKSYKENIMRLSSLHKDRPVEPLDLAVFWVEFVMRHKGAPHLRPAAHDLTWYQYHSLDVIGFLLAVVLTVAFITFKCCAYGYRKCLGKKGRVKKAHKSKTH
T4 sequence (P19224 27-532): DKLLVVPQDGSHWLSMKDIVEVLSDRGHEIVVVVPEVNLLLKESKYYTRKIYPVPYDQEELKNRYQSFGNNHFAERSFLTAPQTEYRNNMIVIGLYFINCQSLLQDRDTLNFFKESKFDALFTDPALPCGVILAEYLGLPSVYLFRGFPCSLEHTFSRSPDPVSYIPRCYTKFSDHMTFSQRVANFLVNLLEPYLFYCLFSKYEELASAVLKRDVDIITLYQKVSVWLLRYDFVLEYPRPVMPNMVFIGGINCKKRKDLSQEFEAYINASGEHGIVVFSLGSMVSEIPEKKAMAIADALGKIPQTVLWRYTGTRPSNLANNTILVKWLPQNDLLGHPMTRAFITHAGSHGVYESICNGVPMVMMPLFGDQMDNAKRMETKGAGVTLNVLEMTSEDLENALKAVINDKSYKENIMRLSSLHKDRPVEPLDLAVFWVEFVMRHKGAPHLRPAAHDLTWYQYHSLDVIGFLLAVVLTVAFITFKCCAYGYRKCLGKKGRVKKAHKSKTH
T5 sequence (Q9HAW8 26-530): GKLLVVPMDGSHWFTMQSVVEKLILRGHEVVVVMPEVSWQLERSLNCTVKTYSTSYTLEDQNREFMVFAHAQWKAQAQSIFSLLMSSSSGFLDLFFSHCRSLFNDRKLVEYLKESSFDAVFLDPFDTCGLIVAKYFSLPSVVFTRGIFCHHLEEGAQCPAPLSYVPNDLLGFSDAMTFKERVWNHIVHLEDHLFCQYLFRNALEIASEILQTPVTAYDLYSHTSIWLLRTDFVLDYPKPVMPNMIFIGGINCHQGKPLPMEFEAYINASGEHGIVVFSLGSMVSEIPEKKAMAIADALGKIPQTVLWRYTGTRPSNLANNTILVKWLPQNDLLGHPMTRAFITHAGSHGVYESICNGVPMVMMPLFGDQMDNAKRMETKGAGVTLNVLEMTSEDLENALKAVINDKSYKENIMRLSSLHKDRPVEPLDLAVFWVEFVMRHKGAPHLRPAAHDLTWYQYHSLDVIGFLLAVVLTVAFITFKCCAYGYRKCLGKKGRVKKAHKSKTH

Structure (SMILES): Cc1cc(O)cc2sc(C3=NC(C(=O)O)CS3)nc12 (stereo not shown) [Compound 3478]
utilization of substrate by UGT 1A4 [1]: did not utilize either compound 3138 or 3478 to an appreciable extent
% utilization of substrate by UGT 1A9 [2]: ≤ 15%
utilization of substrate by UGT 2B4 [3]: did not utilize either compound 3138 or 3478 to an appreciable extent
utilization of substrate by UGT 1A6 [4]: able to utilize compound 3478 to any appreciable extent
% utilization of substrate by UGT 1A10 [5]: ≤ 15%
% utilization of substrate by UGT 1A8 [6]: ≤ 15%
% utilization of substrate by UGT 1A1 [7]: ≤ 15%
% utilization of substrate by UGT 2B7 [8]: ≤ 15%

Structure (SMILES): O=c1cc(C(F)(F)F)c2ccc(O)cc2o1 [7-hydroxy-4-trifluoromethyl coumarin]
Isozymes Modulated [9]: Substrate for 1A1, 1A3, 1A6, 1A9, 2B7

bioluminescence with GST A1-1 minus no enzyme [10, 12]: 6,410 RLU
bioluminescence with GST A1-1 minus no enzyme [10, 13]: 6,462 RLU
bioluminescence with GST M1-1 minus no enzyme [11, 12]: 315,759 RLU
bioluminescence with GST M1-1 minus no enzyme [11, 13]: 213,920 RLU
Structure (SMILES): Cc1cc(S(=O)(=O)Oc2ccc3nc(C4=N[C@@H](C(=O)O)CS4)sc3c2)ccc1[N+](=O)[O-] [converted compound 934-37]
